Reference: patent publication US20260274892A1, “MACROCYCLIC BROAD SPECTRUM ANTIBIOTICS” (RQx Pharmaceuticals, Inc., priority 2017, published 2026)

Key:
[1] = tested on: Methicillin Resistant Staphylococcus aureus strain USA 200; assay: Minimum inhibitory concentration (MIC), CLSI broth micro-dilution, S. aureus; type: cell-based; conditions: Staphylococcus aureus, MRSA / USA200; Table 6; MRSA USA 200; cation adjusted Mueller Hinton Broth + 0.002% Tween-80; 35° C., 22 hours
Description: In vitro antimicrobial activity of each compound was determined by measuring minimal inhibitor concentrations (MICs) using the broth micro-dilution technique as approved by the Clinical and Laboratory Standards Institute (CLSI) (Methods for Dilution Antimicrobial Susceptibility Tests for Bacteria that Grow Aerobically; Approved Standard-Eighth Edition. CLSI document M07-A8. Wayne, PA: Clinical and Laboratroy Standards; 2009). Antibacterial activity was measure against two strains of bacteria: a Methicillin Resistant Staphylococcus aureus strain USA 200, (S. aureus) and Escherichia coli ATCC 25922 (E. coli), a clinically relevant Gram-negative strain. Cells were inoculated onto plates of Trypyticase Soy Agar or Luria Agar respectively and grown at 35° C. for 20 hours. Inocula suspensions were prepared by scraping cells into 1 mL of testing media (cation adjusted Mueller Hinton Broth supplemented with 0.002% v/v Tween-80) and diluting to a final OD600nm of 0.01.
Test compounds were prepared in DMSO at a concentration of 10 mg/mL. In protocol 1, the compound stocks were diluted into testing media at a concentration of 64 µg/ml and serial 2-fold dilutions were made in the same media, in 96-well U bottom microtiter dishes, for a total of 10 compound concentrations. In protocol 2, the compound stocks were diluted into testing media at a concentration of 4 µg/mL and serial 2-fold dilutions were made in the same media, in 96-well U bottom microtiter dishes, for a total of 10 compound concentrations. In protocol 3, compound stocks were diluted into testing media at a concentration of 0.5 μg/mL, with serial 2-fold dilutions conducted as described above. In protocol 4, compound stocks were diluted into testing media at a concentration of […], with serial 2-fold dilutions conducted as described above. Inocula suspensions were added to the 2-fold serial dilutions of test compounds to a final density of GD OD600nm of 0.0005 and incubated at 35° C. for 22 hours.

[2] = tested on: Escherichia coli ATCC 25922; assay: Minimum inhibitory concentration (MIC), CLSI broth micro-dilution, E. coli; type: cell-based; conditions: Escherichia coli, ATCC25922, 22 h, Table 6, cation adjusted Mueller Hinton Broth + 0.002% Tween-80, 35° C.
In short: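 Colonies grown 20 h at 35° C on Trypticase Soy agar (MRSA) or Luria agar (E. coli) were suspended in cation-adjusted Mueller Hinton broth with 0.002% Tween-80. Suspensions were added at OD600 0.0005 to 10-point twofold compound dilutions, then incubated 22 h at 35° C.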

| SMILES | MIC [1] [µM] | MIC [2] [µM] |
| --- | --- | --- |
| CCCCCCc1ncc(-c2ccc(C(=O)N[C@@H](CCN)C(=O)N(C)[C@@H]3C(=O)N[C@@H](C)C(=O)N[C@H](C(=O)NCC#N)Cc4ccc(OCCN)c(c4)-c4cc3ccc4OCCN)c(C)c2)cn1 (racemic) [Compound 204, rac-(8S,11S,14S)-3,18-bis(2-aminoethoxy)-N-(cyanomethyl)-11-methyl-14-[methyl-[rac-(2S)-4-amino-2-[[4-(2-hexylpyrimidin-5-yl)-2-methyl-benzoyl]amino]butanoyl]amino]-10,13-dioxo-9,12-diazatricyclo[13.3.1.12,6]icosa-1(18),2(20),3,5,15(19),16-hexaene-8-carboxamide] | 0.032 | 2.1 |
| CCCCCc1ccc(-c2ccc(C(=O)N[C@@H](CCN)C(=O)N(C)[C@@H]3C(=O)N[C@@H](C)C(=O)N[C@H](C(=O)NCC#N)Cc4ccc(OCCN)c(c4)-c4cc3ccc4OCCN)c(C)n2)cc1 (racemic) [Compound 205, rac-(8S,11S,14S)-3,18-bis(2-aminoethoxy)-N-(cyanomethyl)-11-methyl-14-[methyl-[rac-(2S)-4-amino-2-[[2-methyl-6-(4-pentylphenyl)pyridine-3-carbonyl]amino]butanoyl]amino]-10,13-dioxo-9,12-diazatricyclo[13.3.1.12,6]icosa-1(18),2(20),3,5,15(19),16-hexaene-8-carboxamide] | 0.012 | 0.066 |
| Cc1nc(-c2ccc(C(C)(C)C)cc2)ccc1C(=O)N[C@@H](CCN)C(=O)N(C)[C@@H]1C(=O)N[C@@H](C)C(=O)N[C@H](C(=O)NCC#N)Cc2ccc(OCCN)c(c2)-c2cc1ccc2OCCN (racemic) [Compound 206, rac-(8S,11S,14S)-3,18-bis(2-aminoethoxy)-N-(cyanomethyl)-11-methyl-14-[methyl-[rac-(2S)-4-amino-2-[[6-(4-tert-butylphenyl)-2-methyl-pyridine-3-carbonyl]amino]butanoyl]amino]-10,13-dioxo-9,12-diazatricyclo[13.3.1.12,6]icosa-1(18),2(20),3,5,15(19),16-hexaene-8-carboxamide] | 0.025 | 0.13 |
| CCCCc1ccc(-c2ccc(C(=O)N[C@@H](CCN)C(=O)N(C)[C@@H]3C(=O)N[C@@H](C)C(=O)N[C@H](C(=O)NCC#N)Cc4ccc(OCCN)c(c4)-c4cc3ccc4OCCN)c(C)n2)cc1 (racemic) [Compound 207, rac-(8S,11S,14S)-3,18-bis(2-aminoethoxy)-N-(cyanomethyl)-11-methyl-14-[methyl-[rac-(2S)-4-amino-2-[[6-(4-butylphenyl)-2-methyl-pyridine-3-carbonyl]amino]butanoyl]amino]-10,13-dioxo-9,12-diazatricyclo[13.3.1.12,6]icosa-1(18),2(20),3,5,15(19),16-hexaene-8-carboxamide] | 0.017 | 0.1 |
| CCCc1ccc(-c2ccc(C(=O)N[C@@H](CCN)C(=O)N(C)[C@@H]3C(=O)N[C@@H](C)C(=O)N[C@H](C(=O)NCC#N)Cc4ccc(OCCN)c(c4)-c4cc3ccc4OCCN)c(C)n2)cc1 (racemic) [Compound 208, rac-(8S,11S,14S)-3,18-bis(2-aminoethoxy)-N-(cyanomethyl)-11-methyl-14-[methyl-[rac-(2S)-4-amino-2-[[2-methyl-6-(4-propylphenyl)pyridine-3-carbonyl]amino]butanoyl]amino]-10,13-dioxo-9,12-diazatricyclo[13.3.1.12,6]icosa-1(18),2(20),3,5,15(19),16-hexaene-8-carboxamide] | 0.017 | 0.14 |
| CCCCCc1ncc(-c2ccc(C(=O)N[C@@H](CCN)C(=O)N(C)[C@@H]3C(=O)N[C@@H](C)C(=O)N[C@H](C(=O)NCC#N)Cc4ccc(OCCN)c(c4)-c4cc3ccc4OCCN)c(C)n2)cn1 (racemic) [Compound 209, rac-(8S,11S,14S)-3,18-bis(2-aminoethoxy)-N-(cyanomethyl)-11-methyl-14-[methyl-[rac-(2S)-4-amino-2-[[2-methyl-6-(2-pentylpyrimidin-5-yl)pyridine-3-carbonyl]amino]butanoyl]amino]-10,13-dioxo-9,12-diazatricyclo[13.3.1.12,6]icosa-1(18),2(20),3,5,15(19),16-hexaene-8-carboxamide] | 0.26 | 2.1 |
| Cc1nc(C#CC(C)(C)C)ccc1C(=O)N[C@@H](CCN)C(=O)N(C)[C@@H]1C(=O)N[C@@H](C)C(=O)N[C@H](C(=O)NCC#N)Cc2ccc(OCCN)c(c2)-c2cc1ccc2OCCN (racemic) [Compound 213, rac-(8S,11S,14S)-3,18-bis(2-aminoethoxy)-N-(cyanomethyl)-11-methyl-14-[methyl-[rac-(2S)-4-amino-2-[[6-(3,3-dimethylbut-1-ynyl)-2-methyl-pyridine-3-carbonyl]amino]butanoyl]amino]-10,13-dioxo-9,12-diazatricyclo[13.3.1.12,6]icosa-1(18),2(20),3,5,15(19),16-hexaene-8-carboxamide] | 0.28 | 1.1 |
| Cc1nc(C#CC2CCCCC2)ccc1C(=O)N[C@@H](CCN)C(=O)N(C)[C@@H]1C(=O)N[C@@H](C)C(=O)N[C@H](C(=O)NCC#N)Cc2ccc(OCCN)c(c2)-c2cc1ccc2OCCN (racemic) [Compound 214, rac-(8S,11S,14S)-3,18-bis(2-aminoethoxy)-N-(cyanomethyl)-11-methyl-14-[methyl-[rac-(2S)-4-amino-2-[[6-(2-cyclohexylethynyl)-2-methyl-pyridine-3-carbonyl]amino]butanoyl]amino]-10,13-dioxo-9,12-diazatricyclo[13.3.1.12,6]icosa-1(18),2(20),3,5,15(19),16-hexaene-8-carboxamide] | 0.034 | 0.41 |
| Cc1nc(-c2ccc3c(c2)CCCC3)ncc1C(=O)N[C@@H](CCN)C(=O)N(C)[C@@H]1C(=O)N[C@@H](C)C(=O)N[C@H](C(=O)NCC#N)Cc2ccc(OCCN)c(c2)-c2cc1ccc2OCCN (racemic) [Compound 216, rac-(8S,11S,14S)-3,18-bis(2-aminoethoxy)-N-(cyanomethyl)-11-methyl-14-[methyl-[rac-(2S)-4-amino-2-[(4-methyl-2-tetralin-6-yl-pyrimidine-5-carbonyl)amino]butanoyl]amino]-10,13-dioxo-9,12-diazatricyclo[13.3.1.12,6]icosa-1(18),2(20),3,5,15(19),16-hexaene-8-carboxamide] | 0.0084 | 0.2 |
| Cc1nc(-c2ccc(CC3CCC3)cc2)ncc1C(=O)N[C@@H](CCN)C(=O)N(C)[C@@H]1C(=O)N[C@@H](C)C(=O)N[C@H](C(=O)NCC#N)Cc2ccc(OCCN)c(c2)-c2cc1ccc2OCCN (racemic) [Compound 217, rac-(8S,11S,14S)-3,18-bis(2-aminoethoxy)-N-(cyanomethyl)-11-methyl-14-[methyl-[rac-(2S)-4-amino-2-[[2-[4-(cyclobutylmethyl)phenyl]-4-methyl-pyrimidine-5-carbonyl]amino]butanoyl]amino]-10,13-dioxo-9,12-diazatricyclo[13.3.1.12,6]icosa-1(18),2(20),3,5,15(19),16-hexaene-8-carboxamide] | 0.0082 | 0.099 |
| Cc1nc(-c2ccc(CC3CCCC3)cc2)ncc1C(=O)N[C@@H](CCN)C(=O)N(C)[C@@H]1C(=O)N[C@@H](C)C(=O)N[C@H](C(=O)NCC#N)Cc2ccc(OCCN)c(c2)-c2cc1ccc2OCCN (racemic) [Compound 218, rac-(8S,11S,14S)-3,18-bis(2-aminoethoxy)-N-(cyanomethyl)-11-methyl-14-[methyl-[rac-(2S)-4-amino-2-[[2-[4-(cyclopentylmethyl)phenyl]-4-methyl-pyrimidine-5-carbonyl]amino]butanoyl]amino]-10,13-dioxo-9,12-diazatricyclo[13.3.1.12,6]icosa-1(18),2(20),3,5,15(19),16-hexaene-8-carboxamide] | 0.012 | 0.097 |
| Cc1nc(-c2ccc(C3(C(F)(F)F)CC3)cc2)ncc1C(=O)N[C@@H](CCN)C(=O)N(C)[C@@H]1C(=O)N[C@@H](C)C(=O)N[C@H](C(=O)NCC#N)Cc2ccc(OCCN)c(c2)-c2cc1ccc2OCCN (racemic) [Compound 219, rac-(8S,11S,14S)-3,18-bis(2-aminoethoxy)-N-(cyanomethyl)-11-methyl-14-[methyl-[rac-(2S)-4-amino-2-[[4-methyl-2-[4-[1-(trifluoromethyl)cyclopropyl]phenyl]pyrimidine-5-carbonyl]amino]butanoyl]amino]-10,13-dioxo-9,12-diazatricyclo[13.3.1.12,6]icosa-1(18),2(20),3,5,15(19),16-hexaene-8-carboxamide] | 0.012 | 0.13 |
